“Also recorded” adds a separate entry of the source. Where two headings read alike, the source gives them in different places.
Legend:
[1] = system: LUHMES cells; experiment: NeuriTox test: neurite area and viability, 24 h; format: cell-based, human
Experimental: (§1) The NeuriTox test was performed as previously described (Delp et al. [2018b]; Krug et al. [2013a]; Stiegler et al. [2011]). Briefly, cells differentiated for 48 h were re-seeded into 96-well plates at a density of 100,000 cells/cm^2 in DM without cAMP and GDNF, and treated 1 h after seeding for 24 h. Subsequently, multiple endpoints were determined, e.g., neurite outgrowth (i.e., NeuriTox test), resazurin reduction, intracellular ATP content, gene expression levels from TempO-Seq analysis, and proteasomal activity. For the 120 h exposure scenario, LUHMES cells were differentiated for another 3 days after reseeding before they were treated on day 5 (d5) and d7 by a half medium exchange. Endpoints were determined on d10 of differentiation.
(§2) Image acquisition and analysis was performed as described previously (Krug et al. [2013a]; Schildknecht et al. [2013]; Stiegler et al. [2011]). In brief, cells were live-stained with 1 µg/ml Hoechst H-33342 and 1 µM calcein-AM and image acquisition was done by an automated high content imager (Cellomics, Waltham, MA, USA). Cell viability was determined as ratio of live cells (cell bodies being Calcein- and Hoechst-positive) relative to the total amount of cells (Hoechst-positive cell bodies). Neurite area was calculated by subtracting the somatic area (Hoechst-positive area plus surrounding) from the calcein-positive area.

[2] = system: LUHMES cells; experiment: LUHMES 120 h exposure scenario, neurite effects; format: cell-based, human
Experimental: as §1, §2

[3] = system: SH-SY5Y cells; format: cell-based, human; settings: up to 10 µM; for Neurite degeneration: 24 h exposure, without affecting viability; for Neurite degeneration (in words) / Reduction in viability: 120 h exposure
Experimental: The cells are able to form neurites and display several dopaminergic characteristics. […] Differentiation was initiated 24 h later (on day 0, d0) by exchange to 100 µl/well differentiation medium (DMEM:F12, supplemented with 1 µM all-trans retinoic acid (RA), 1 × N2 supplement, 2 mM L-glutamine, 100 µg/ml streptomycin, and 100 U/ml penicillin). All media and supplements were obtained from Gibco (ThermoFisher) except from RA (Sigma).
On d3, 100 µl of fresh differentiation medium were added to the wells. For the 120 h exposure, this medium contained twice the final treatment concentration. On d6, 100 µl from each well were removed, and the procedure was repeated and the cells were analyzed on d8. For the 24 h exposure, cells received an addition of 100 µl pure differentiation medium on d3 and were treated with compounds as described above on d6 for 24 h before analysis. […] The cells were incubated with the stain mixture for 20 min at 37 °C, 5% CO2. After incubation, 130 µL of differentiation medium were added to all the wells to stop further staining of the cells. Images were obtained using ImageXpress® Micro (Molecular Devices). […] The mean neurite length was calculated using the Neurite Outgrowth plug-in in the MetaXpress® Software. Outgrowths were defined as cytoplasmic prolongations with a maximum width of 2 µm (3 pixels). The minimum outgrowth size needed to be logged as significant was defined as 15 µm (23 pixels).

[4] = target: T1, cII (Homo sapiens, UniProt O14521+P21912+Q99643); experiment: Respiratory chain complex activity in permeabilized LUHMES cells: cII; format: cell-based; settings: mepronil at 100 µM
T1 construct: endogenous in cells; host or cells: LUHMES cells, digitonin-permeabilized
Experimental: (§3) To investigate individual respiratory chain complexes, a method developed earlier and described extensively was used (Delp et al. [2019]). In brief, LUHMES cells were seeded at a density of 205,000 cells/cm^2 in PM into Agilent Seahorse XFe24-well plates. […] To reduce data variability, internal normalization of the OCR of each well was done relative to its value after equilibration.

[5] = target: T2, cI (Homo sapiens, UniProt O75251+O75306+P03886); format: cell-based; settings: permeabilized LUHMES; capsaicin 50 µM, mepronil 100 µM
T2 construct: endogenous in cells; host or cells: LUHMES cells, digitonin-permeabilized
Experimental: as §3

[6] = target: T3, cIII (Homo sapiens, UniProt P00156); experiment: Respiratory chain complex activity in permeabilized LUHMES cells: cIII; format: cell-based
T3 construct: endogenous in cells; host or cells: LUHMES cells, digitonin-permeabilized
Experimental: as §3

[7] = system: LUHMES cells; experiment: Mitochondrial respiration of intact LUHMES cells (Seahorse OCR); format: cell-based, human; settings: d3 LUHMES, acute treatment, highest non-cytotoxic concentration (cII inhibitors 100 µM)
Experimental: Respiration of intact LUHMES cells was performed as described earlier (Delp et al. [2018a], [2019]). Briefly, 48 h differentiated cells were re-seeded into Agilent Seahorse XFe24-well plates in DM without cAMP and GDNF at a density of 100,000 cells/cm^2 and cultured for 24 h before the assay was initiated. Inhibition of respiration was calculated as the difference between baseline measurements (i.e., after equilibration, last measurement before treatment) and the first measurement after treatment with the test compound.

[8] = Homo sapiens, NeuriTox exposure scheme, 24 h, read-out: LUHMES 24 h EC25 NA (neurite area) (converted)
[9] = Homo sapiens, NeuriTox exposure scheme, 24 h, read-out: LUHMES 24 h EC25 V (viability) (converted)
[10] = Homo sapiens, NeuriTox test, neurite outgrowth impairment, LUHMES 24 h, read-out: EC25 KE4 (AO) Neurite toxicity (converted)

T1 sequence (P21912 29-280): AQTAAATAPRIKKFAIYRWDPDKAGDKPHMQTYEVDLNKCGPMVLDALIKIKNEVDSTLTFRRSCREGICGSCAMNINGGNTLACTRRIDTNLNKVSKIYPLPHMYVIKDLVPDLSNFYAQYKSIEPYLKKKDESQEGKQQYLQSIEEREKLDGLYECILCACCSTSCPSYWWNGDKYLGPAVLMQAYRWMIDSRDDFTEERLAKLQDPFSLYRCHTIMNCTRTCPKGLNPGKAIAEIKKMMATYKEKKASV
T1 sequence (Q99643 30-169): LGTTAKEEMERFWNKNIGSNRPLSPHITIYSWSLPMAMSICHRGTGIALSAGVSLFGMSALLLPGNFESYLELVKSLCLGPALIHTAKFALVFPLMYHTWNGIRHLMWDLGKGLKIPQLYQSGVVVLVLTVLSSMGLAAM
T1 sequence (O14521 57-159): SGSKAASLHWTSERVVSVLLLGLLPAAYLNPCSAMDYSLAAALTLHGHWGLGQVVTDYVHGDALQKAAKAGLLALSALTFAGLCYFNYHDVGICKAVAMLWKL
T1 sequence (P31040 43-664 partner): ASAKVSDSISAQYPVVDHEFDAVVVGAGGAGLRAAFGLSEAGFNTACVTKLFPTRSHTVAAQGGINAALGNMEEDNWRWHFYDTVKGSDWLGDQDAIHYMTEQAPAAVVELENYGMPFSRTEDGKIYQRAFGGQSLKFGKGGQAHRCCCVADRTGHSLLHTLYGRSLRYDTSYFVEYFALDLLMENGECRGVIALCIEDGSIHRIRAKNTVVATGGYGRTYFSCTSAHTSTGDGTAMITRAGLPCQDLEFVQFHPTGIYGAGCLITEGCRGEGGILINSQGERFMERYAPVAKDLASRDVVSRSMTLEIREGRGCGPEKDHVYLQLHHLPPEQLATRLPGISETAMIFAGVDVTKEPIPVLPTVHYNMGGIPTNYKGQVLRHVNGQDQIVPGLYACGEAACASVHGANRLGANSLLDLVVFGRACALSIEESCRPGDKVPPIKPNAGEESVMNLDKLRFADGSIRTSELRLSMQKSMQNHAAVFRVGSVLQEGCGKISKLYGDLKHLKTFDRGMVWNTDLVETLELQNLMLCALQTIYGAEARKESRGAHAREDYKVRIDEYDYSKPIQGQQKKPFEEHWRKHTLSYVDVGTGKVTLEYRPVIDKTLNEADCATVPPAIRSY
T2 sequence (O75306 34-463): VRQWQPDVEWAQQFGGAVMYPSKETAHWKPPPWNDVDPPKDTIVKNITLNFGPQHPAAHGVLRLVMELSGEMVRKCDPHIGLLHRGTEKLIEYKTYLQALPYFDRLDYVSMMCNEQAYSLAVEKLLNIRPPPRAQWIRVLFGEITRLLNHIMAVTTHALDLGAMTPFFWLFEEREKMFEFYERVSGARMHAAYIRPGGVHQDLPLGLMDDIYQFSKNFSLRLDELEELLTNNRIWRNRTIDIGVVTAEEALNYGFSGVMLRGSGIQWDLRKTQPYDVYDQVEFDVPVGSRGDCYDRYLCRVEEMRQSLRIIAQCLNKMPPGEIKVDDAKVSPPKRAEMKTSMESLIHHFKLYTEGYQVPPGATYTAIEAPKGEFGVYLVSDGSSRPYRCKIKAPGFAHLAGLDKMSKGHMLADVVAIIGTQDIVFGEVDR
T2 sequence (P03886 whole entry): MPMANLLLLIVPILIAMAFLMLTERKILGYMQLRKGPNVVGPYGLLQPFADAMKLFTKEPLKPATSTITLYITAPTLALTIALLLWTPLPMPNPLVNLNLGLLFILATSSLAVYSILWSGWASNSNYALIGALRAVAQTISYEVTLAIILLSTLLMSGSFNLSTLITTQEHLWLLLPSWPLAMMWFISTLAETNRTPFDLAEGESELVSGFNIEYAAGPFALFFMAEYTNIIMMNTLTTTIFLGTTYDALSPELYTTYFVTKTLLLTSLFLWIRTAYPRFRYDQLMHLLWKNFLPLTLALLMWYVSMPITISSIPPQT
T2 sequence (O75251 39-213): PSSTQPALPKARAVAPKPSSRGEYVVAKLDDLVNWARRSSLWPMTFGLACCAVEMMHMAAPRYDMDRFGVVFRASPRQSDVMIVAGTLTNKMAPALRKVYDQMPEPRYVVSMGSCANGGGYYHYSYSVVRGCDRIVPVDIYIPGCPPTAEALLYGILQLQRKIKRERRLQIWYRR

Row | SMILES | Offset between neurite endpoint (LUHMES/SH-SY5Y) and U2OS viability [1] | EC25 [1, 8] | EC25 [1, 9] | EC25 [1, 10] | Increase in sensitivity of neurite EC25, 120 h versus 24 h exposure [2] | Neurite degeneration [3] | Neurite degeneration (in words) [3] | Reduction in viability [3] | Inhibition of cII activity (in words) [4] | Inhibition of total mitochondrial respiration of intact cells [7] | other results
1 | COc1cc2c(cc1OC)[C@@H]1C(=O)c3ccc4c(c3O[C@@H]1CO2)C=CC(C)(C)O4 [Deguelin] | > tenfold offset | 3.98 µM | 50.1 µM | 3.98 µM | five-to-eightfold | no effects | degeneration of neurites; also recorded: increased neurite degeneration | > 25% | – | – | EC50 ([1]; Homo sapiens, read-out: EC10V (10% reduction of viability), NeuriTox assay, LUHMES 24 h): 13 µM
2 | Cc1ccccc1C(=O)Nc1cccc(OC(C)C)c1 [Mepronil] | – | 100 µM | > 100 µM | > 100 µM | – | – | – | – | significant, but weak inhibitor | – | Inhibition of cI activity (in words) [5]: weakly affected cI
3 | Cc1nc(C(F)(F)F)c(C(=O)Nc2c(Br)cc(OC(F)(F)F)cc2Br)s1 [Thifluzamide] | – | 20 µM | 63.1 µM | 20 µM | five-to-eightfold | – | – | – | strong inhibition of cII | – | –
4 | CCOCCc1ccc(OCCN=c2[nH]cnc(CC)c2Cl)c(C)c1C [Pyrimidifen] | – | 15.8 µM | 39.8 µM | 15.8 µM | 9.8 fold | – | – | – | – | – | –
5 | CC1=C(C(=O)Nc2ccccc2)SCCO1 [Carboxin] | – | 79.4 µM | > 100 µM | 79.4 µM | – | – | – | – | strong inhibition of cII | – | –
6 | Cc1ccc(-c2c(Cl)nc(C#N)n2S(=O)(=O)N(C)C)cc1 [Cyazofamid] | – | 50.1 µM | > 50.1 µM | 50.1 µM | five-to-eightfold | > 25% | degeneration of neurites; also recorded: increased neurite degeneration | > 25% | – | inactive | Inhibition of cIII activity (in words) ([6]; cIII electron donor): not active at all; Uncoupling action ([6]; neuronal mitochondria, 50 µM): uncoupling action; Precipitation in the assay ([1]; LUHMES NeuriTox concentration range): precipitate in the active concentration range
7 | COC(=O)N(OC)c1ccccc1COc1ccn(-c2ccc(Cl)cc2)n1 [Pyraclostrobin] | – | 25.1 µM | > 50.1 µM | 25.1 µM | five-to-eightfold | – | – | – | – | – | –
8 | COc1cc(CNC(=O)CCCC/C=C/C(C)C)ccc1O [Capsaicin] | – | > 50.1 µM | > 50.1 µM | – | – | – | – | – | – | weak response | Inhibition of cI activity (in words) [5]: no significant response
9 | C=C(C)[C@H]1Cc2c(ccc3c2O[C@@H]2COc4cc(OC)c(OC)cc4[C@@H]2C3=O)O1 [Rotenone] | > 100 fold | – | – | – | – | > 25% | degeneration of neurites | > 25% | – | – | EC25 ([1]; Homo sapiens, 24 h, read-out: EC25 KE4 (AO) Neurite toxicity): 0.0794 µM; EC25 ([1]; Homo sapiens, 24 h, read-out: LUHMES 24 h EC25 NA (neurite area)): 0.0794 µM; EC25 ([1]; Homo sapiens, 24 h, read-out: LUHMES 24 h EC25 V (viability)): > 10 µM
10 | CCCCCC[C@H]1C(=O)O[C@H](C)[C@H](NC(=O)c2cccc(NC=O)c2O)C(=O)O[C@@H](C)[C@@H]1OC(=O)CC(C)C [Antimycin A] | potentially strong neurite-specific toxicant | 15.8 µM | > 50.1 µM | 15.8 µM | – | > 25% | degeneration of neurites | > 25% | – | strong inhibitory effects | –

— article PMC7870626, “Neurotoxicity and underlying cellular changes of 21 mitochondrial respiratory chain inhibitors” (Archives of Toxicology, 2021)
